Reference: patent US20060058307A1, “Combination of an atp-competitive inhibitor of bcr/abl kinase activity and a tyrphostin analog” (priority 2001, published 2006)
Like-named read-outs stand apart in the source and are kept apart here. Values belong to the compound of their own block, whether it stands above or below them.

Tests used:
p210^bcr/abl = conditions: immune complex kinase assays; cited from earlier work
[1] = animal testing, in vivo; unpublished observations of Stinson, Narayanan and Sausville; adaphostin compared with AG957; cited from earlier work
[2] = compared with AG957; Svingen et al.; cited from earlier work
K562 cells [3] = experiment: Clonogenic assay (colony formation in 0.3% agar) of K562 cells; assay type: cell-based, human; conditions: 24 h
Procedure: At the completion of the incubation, cells are washed, plated in 0.3% agar and incubated for 10-14 days before colony formation is assessed. For results see under (a) in Table (A). […] At the completion of the incubation, colony formation ability is assessed as described in the last paragraph.

K562 cells [4] = experiment: Morphologic changes associated with apoptosis (Hoechst 33258 staining) in K562 cells; assay type: cell-based, human; conditions: 24 h
Procedure: For morphological analysis, cells are fixed in 3:1 (v:v) methanol:acetic acid, stained with 1 μg/ml Hoechst 33258 in 50% (v:v) glycerol and examined under epi-illumination using a Zeiss Axioplan microscope. Two hundred to 300 cells/sample are scored for apoptotic changes (peripheral chromatin condensed or nuclear fragmentation) as described in Svingen et al., Clin. Cancer Res. 6, 237-49 (2000).
Under (c) in Table (A), K562 cells are incubated with the concentration indicated in the subsequent table in the presence of diluent or 10 μmol/l STI 571, fixed, and examined for apoptotic morphological changes.

CML CFU-G = experiment: Granulocyte colony formation of circulating mononuclear cells from CML patients (CFU-G / CFU-GM); assay type: cell-based, human; conditions: for Number of colonies (% of control): (d) Pt. #30 CFU-GM, 24 h; for IC50: Homo sapiens, CFU-GM, linear regression
Procedure: Clinical samples are studied under the aegis of a protocol approved by the Institutional Review Board of the Mayo Clinic in accordance with the policies of the US Department of Health and Human Services. […] CML CFU-G, 10 mL of peripheral blood is drawn from normal volunteers and consenting patients with previously untreated chronic phase CML using EDTA as an anticoagulant. […] At the completion of the incubation, samples are sedimented at 200×g for 10 min, resuspended at a concentration of 1×10^6/ml in medium C containing 50 ng/mL G-CSF, plated in 0.3% agar, and incubated for 7-8 d. Colonies containing […] are counted on an inverted phase contrast microscope.

SMILES: COC(=O)c1ccc(NCc2cc(O)ccc2O)cc1 [AG957]
p210^bcr/abl activity (p210^bcr/abl): inhibit | serum half-life [1]: very short

IC50 (CML CFU-G; read-out: IC50 for Adaphostin in presence of 20 μmol/l STI571, CFU-GM, patient number 28): 5 µM | IC50 (CML CFU-G; read-out: IC50 for Adaphostin in presence of 20 μmol/l STI571, CFU-GM, patient number 29): 14 µM | IC50 (CML CFU-G; read-out: IC50 for Adaphostin in presence of 20 μmol/l STI571, CFU-GM, patient number 30): 8.5 µM | IC50 (CML CFU-G; read-out: IC50 for Adaphostin in presence of 20 μmol/l STI571, CFU-GM, patient number 31): 10 µM | IC50 (CML CFU-G; read-out: IC50 for Adaphostin in presence of 20 μmol/l STI571, CFU-GM, patient number 33): 16 µM | IC50 (CML CFU-G; read-out: IC50 for Adaphostin in presence of 20 μmol/l STI571, CFU-GM, patient number 34): 3.5 µM | IC50 (CML CFU-G; read-out: IC50 for Adaphostin without STI571, CFU-GM, patient number 28): 13 µM | IC50 (CML CFU-G; read-out: IC50 for Adaphostin without STI571, CFU-GM, patient number 29): > 20 µM | IC50 (CML CFU-G; read-out: IC50 for Adaphostin without STI571, CFU-GM, patient number 30): 13.5 µM | IC50 (CML CFU-G; read-out: IC50 for Adaphostin without STI571, CFU-GM, patient number 31): 8.5 µM | IC50 (CML CFU-G; read-out: IC50 for Adaphostin without STI571, CFU-GM, patient number 33): 23 µM | IC50 (CML CFU-G; read-out: IC50 for Adaphostin without STI571, CFU-GM, patient number 34): 11 µM
SMILES: O=C(OC12CC3CC(CC(C3)C1)C2)c1ccc(NCc2cc(O)ccc2O)cc1 [Adaphostin, 4-{[(2,5-dihydroxyphenyl)methyl]amino}-benzoic acid adamantyl ester]
potency in vitro [2]: higher | serum half-life [1]: longer | Number of colonies (% of control) (K562 cells [3]; (a) adaphostin 2.5 μmol/l without STI571): 56 ± 4 % of control | Number of colonies (% of control) (K562 cells [3]; (a) adaphostin 5.1 μmol/l without STI571): 46 ± 4 % of control | Number of colonies (% of control) (K562 cells [3]; (a) adaphostin 7.7 μmol/l without STI571): 27 ± 4 % of control | Number of colonies (% of control) (K562 cells [3]; (a) adaphostin 10.2 μmol/l without STI571): 10 ± 1 % of control | Number of colonies (% of control) (K562 cells [3]; (b) adaphostin 5.2 μmol/l, STI571 0): 35 ± 3 % of control | Apoptosis (% of total cells) (K562 cells [4]; (c) adaphostin 0.62 μmol/l without STI571): 2.1 % of total cells | Apoptosis (% of total cells) (K562 cells [4]; (c) adaphostin 1.25 μmol/l without STI571): 10.9 % of total cells | Apoptosis (% of total cells) (K562 cells [4]; (c) adaphostin 2.50 μmol/l without STI571): 41.8 % of total cells | Apoptosis (% of total cells) (K562 cells [4]; (c) adaphostin 3.75 μmol/l without STI571): 62.8 % of total cells | Apoptosis (% of total cells) (K562 cells [4]; (c) adaphostin 5.00 μmol/l without STI571): 84.1 % of total cells | Number of colonies (% of control) (CML CFU-G; adaphostin 3.2 μmol/l without STI571): 93 ± 1.9 % of control | Number of colonies (% of control) (CML CFU-G; adaphostin 6.4 μmol/l without STI571): 71 ± 2.2 % of control | Number of colonies (% of control) (CML CFU-G; adaphostin 12.7 μmol/l without STI571): 55 ± 2.5 % of control | Number of colonies (% of control) (CML CFU-G; adaphostin 15.9 μmol/l without STI571): 40 ± 1.2 % of control | Number of colonies (% of control) (CML CFU-G; adaphostin 19.1 μmol/l without STI571): 18 ± 0.7 % of control

SMILES: Cc1ccc(NC(=O)c2ccc(CN3CCN(C)CC3)cc2)cc1Nc1nccc(-c2cccnc2)n1 [STI571, N-{5-[4-(4-methyl-piperazino-methyl)-benzoylamido]-2-methylphenyl}-4-(3-pyridyl)-2-pyrimidine-amine]
Apoptosis (% of total cells) (K562 cells [4]; (c) STI571 10 μmol/l, adaphostin 0): 12.9 % of total cells
